# Source: patent US10669269B2, “Substituted N-(1H-indazol-4-yl)imidazo[1,2-a]pyridine-3-carboxamide compounds as type III receptor tyrosine kinase inhibitors” (ARRAY BIOPHARMA INC., priority 2010, dated 2020)
# Tests used:
# PDGFR beta [1] = molecular target: T1, PDGFR beta (Homo sapiens, UniProt P09619); experiment: Phospho PDGFR Cell Assay, sandwich ELISA (Example A); type: cell-based; settings: averaged IC50, PDGFR beta phosphorylation in HS27 human fibroblast cell line, PDGF-BB stimulation 5 minutes
# T1 construct: endogenous in cells; host or cells: HS27 human fibroblast cell line
# T1 sequence (P09619 33-1106): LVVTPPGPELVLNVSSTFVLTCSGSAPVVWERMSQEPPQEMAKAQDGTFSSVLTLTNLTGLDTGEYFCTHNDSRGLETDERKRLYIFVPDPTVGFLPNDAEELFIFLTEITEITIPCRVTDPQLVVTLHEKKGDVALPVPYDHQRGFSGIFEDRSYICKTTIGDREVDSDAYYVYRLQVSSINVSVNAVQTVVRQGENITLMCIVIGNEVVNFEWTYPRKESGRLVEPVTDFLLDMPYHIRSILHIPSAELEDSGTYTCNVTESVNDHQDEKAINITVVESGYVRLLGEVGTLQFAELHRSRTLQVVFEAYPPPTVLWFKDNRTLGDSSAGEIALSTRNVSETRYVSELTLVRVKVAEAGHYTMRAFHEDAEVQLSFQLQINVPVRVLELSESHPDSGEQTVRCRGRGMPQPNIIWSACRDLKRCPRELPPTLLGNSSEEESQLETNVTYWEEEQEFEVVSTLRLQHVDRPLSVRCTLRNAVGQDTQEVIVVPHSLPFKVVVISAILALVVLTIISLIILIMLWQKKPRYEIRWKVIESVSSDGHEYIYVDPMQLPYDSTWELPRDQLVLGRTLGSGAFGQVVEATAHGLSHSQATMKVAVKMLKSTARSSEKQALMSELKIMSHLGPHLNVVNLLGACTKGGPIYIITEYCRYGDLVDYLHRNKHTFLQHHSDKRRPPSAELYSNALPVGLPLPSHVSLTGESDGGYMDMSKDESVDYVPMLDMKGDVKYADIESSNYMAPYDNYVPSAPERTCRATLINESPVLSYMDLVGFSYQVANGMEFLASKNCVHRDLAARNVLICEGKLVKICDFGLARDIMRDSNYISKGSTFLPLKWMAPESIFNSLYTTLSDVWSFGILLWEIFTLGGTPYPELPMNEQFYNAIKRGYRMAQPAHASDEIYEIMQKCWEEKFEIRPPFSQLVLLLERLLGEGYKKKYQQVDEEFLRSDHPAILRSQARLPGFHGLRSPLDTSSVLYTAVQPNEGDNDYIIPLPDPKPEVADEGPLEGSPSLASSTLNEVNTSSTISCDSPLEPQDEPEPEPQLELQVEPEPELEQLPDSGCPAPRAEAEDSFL
# Protocol: Compounds were screened for inhibition of PDGFR beta phosphorylation in the HS27 human fibroblast cell line. Cells were seeded into a 96 well tissue culture plate, then incubated overnight in a 37° C., 5% CO2 incubator. The following day, cells were treated for one hour with test compound dilutions. After stimulation with PDGF-BB ligand for 5 minutes, cells were lysed and added to a sandwich ELISA plate from R&D Systems to detect levels of phospho PDGFR beta. A standard 4-parameter logistic model was fit to the inhibitor dose response curves, with the IC50 being defined as the concentration of inhibitor giving 50 percent of control (POC).
# c-KIT = molecular target: T2, c-KIT (Homo sapiens, UniProt P10721); experiment: c-KIT Cell-Based Assay (Example D); settings: averaged IC50; phospho-c-KIT in M-07e cells stimulated with 150 ng/ml recombinant human SCF; read-out: cKIT Cell ELISA IC50
# T2 construct: M-07e cells (human acute megakaryoblastic leukemia cell line) were serum-starved for 4 hours; endogenous in cells; host or cells: M-07e cells (human acute megakaryoblastic leukemia cell line)
# T2 sequence (P10721 26-976): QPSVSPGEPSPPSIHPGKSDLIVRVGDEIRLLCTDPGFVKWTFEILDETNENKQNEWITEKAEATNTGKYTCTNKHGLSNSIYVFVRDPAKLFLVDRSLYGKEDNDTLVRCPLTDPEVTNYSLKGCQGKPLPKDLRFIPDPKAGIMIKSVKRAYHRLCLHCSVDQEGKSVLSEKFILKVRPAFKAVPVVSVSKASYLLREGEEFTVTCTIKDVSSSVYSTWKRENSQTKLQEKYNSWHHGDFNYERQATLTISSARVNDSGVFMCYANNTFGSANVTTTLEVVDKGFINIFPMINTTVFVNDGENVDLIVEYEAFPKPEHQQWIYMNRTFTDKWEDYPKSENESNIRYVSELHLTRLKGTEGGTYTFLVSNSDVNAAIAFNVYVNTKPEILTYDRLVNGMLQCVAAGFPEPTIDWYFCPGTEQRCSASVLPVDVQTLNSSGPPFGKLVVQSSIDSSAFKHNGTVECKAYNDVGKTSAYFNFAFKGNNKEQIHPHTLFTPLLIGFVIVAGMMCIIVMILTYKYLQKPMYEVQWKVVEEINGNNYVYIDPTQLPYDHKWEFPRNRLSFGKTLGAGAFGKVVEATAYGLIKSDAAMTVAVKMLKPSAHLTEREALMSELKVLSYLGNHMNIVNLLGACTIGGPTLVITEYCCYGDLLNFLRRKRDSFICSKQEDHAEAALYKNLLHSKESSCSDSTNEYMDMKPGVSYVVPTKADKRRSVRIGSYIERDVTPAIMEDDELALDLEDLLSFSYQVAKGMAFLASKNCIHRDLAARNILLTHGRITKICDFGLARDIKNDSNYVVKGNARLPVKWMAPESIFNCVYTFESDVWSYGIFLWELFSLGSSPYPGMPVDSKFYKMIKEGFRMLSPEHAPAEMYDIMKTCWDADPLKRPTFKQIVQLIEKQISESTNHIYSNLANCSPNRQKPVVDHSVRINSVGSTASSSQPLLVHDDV
# Method in brief: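 M-07e cells serum-starved 4 h, treated 1 h with compound (9-point, 3-fold dilutions, top dose typically 5,000 nM) at 37° C, then stimulated 4 min with 150 ng/ml SCF. Phospho-c-KIT in lysates quantified by ELISA against a standard curve; IC50 from 4-parameter logistic fit as 50% of control.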
# cFMS = molecular target: T3, cFMS (Homo sapiens, UniProt P07333); experiment: cFMS Cell-Based Assay (Example C); settings: averaged IC50; phospho-cFMS in THP-1 cells stimulated with 250 ng/mL recombinant human MCSF; read-out: cFMS Cell ELISA IC50
# T3 construct: THP-1 cells (human acute monocytic leukemia cell line) were serum-starved for 4 hours; endogenous in cells; host or cells: THP-1 cells (human acute monocytic leukemia cell line)
# T3 sequence (P07333 20-972): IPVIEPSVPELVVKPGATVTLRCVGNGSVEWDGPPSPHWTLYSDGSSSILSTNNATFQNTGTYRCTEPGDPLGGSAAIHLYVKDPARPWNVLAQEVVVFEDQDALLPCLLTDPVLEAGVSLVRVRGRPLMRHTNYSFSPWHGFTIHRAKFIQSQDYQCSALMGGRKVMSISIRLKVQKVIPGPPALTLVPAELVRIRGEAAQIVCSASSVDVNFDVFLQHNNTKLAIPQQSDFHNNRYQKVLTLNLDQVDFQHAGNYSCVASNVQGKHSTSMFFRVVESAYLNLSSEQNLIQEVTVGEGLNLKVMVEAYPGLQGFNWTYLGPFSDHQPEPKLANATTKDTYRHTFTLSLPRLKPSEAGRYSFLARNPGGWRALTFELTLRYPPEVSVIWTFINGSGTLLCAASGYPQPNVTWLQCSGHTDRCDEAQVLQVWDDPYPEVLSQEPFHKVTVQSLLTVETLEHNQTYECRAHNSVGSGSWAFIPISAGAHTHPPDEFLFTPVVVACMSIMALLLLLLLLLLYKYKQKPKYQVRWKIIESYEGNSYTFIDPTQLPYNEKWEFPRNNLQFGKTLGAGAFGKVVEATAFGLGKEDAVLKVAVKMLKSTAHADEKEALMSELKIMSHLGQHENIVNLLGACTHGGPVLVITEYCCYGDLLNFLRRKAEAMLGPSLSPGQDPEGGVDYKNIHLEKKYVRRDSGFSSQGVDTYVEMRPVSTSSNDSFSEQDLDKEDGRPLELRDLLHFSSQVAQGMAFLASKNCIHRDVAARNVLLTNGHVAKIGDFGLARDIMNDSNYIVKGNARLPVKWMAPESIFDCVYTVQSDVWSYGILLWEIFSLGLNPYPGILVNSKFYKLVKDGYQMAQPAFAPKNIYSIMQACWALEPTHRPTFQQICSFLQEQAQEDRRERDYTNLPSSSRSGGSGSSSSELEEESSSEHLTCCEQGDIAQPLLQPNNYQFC
# Method in brief: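 THP-1 cells serum-starved 4 h, then treated 1 h with compound (9-point, 3-fold series, top dose typically 5,000 nM) at 37 °C, then stimulated 1 min with 250 ng/mL recombinant human MCSF. Phospho-cFMS in lysates quantified by capture ELISA against a purified phospho-protein standard curve. IC50 at 50 percent of control, 4-parameter logistic fit.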
# PDGFR beta [2] = molecular target: T1, PDGFR beta; experiment: Phospho PDGFR LICOR Cell Assay (Example B); type: cell-based; settings: averaged IC50; PDGFR beta phosphorylation in HS27 human fibroblast cell line, PDGF-BB stimulation 10 minutes, normalized to total ERK
# Method in brief: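 HS27 human fibroblasts pretreated 1 h with compound, then stimulated 10 min with PDGF-BB. Fixed, permeabilized cells immunostained for phospho-PDGFRβ and total ERK and read by two-colour infrared fluorescence, with phospho signal normalized to ERK. IC50 = 50% of control from 4-parameter logistic fit.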
SMILES,IC50 (PDGFR beta [1]) [nM],IC50 (c-KIT) [nM],IC50 (cFMS) [nM],IC50 (PDGFR beta [2]) [nM]
"Cc1nn(Cc2cccc(C(C)C)n2)c2cccc(NC(=O)c3cnc4cc(OCCN5C[C@@H](C)N(C)[C@@H](C)C5)ccn34)c12 [Example 7, N-(1-((6-Isopropylpyridin-2-yl)methyl)-3-methyl-1H-indazol-4-yl)-7-(2-((3S,5R)-3,4,5-trimethylpiperazin-1-yl)ethoxy)imidazo[1,2-a]pyridine-3-carboxamide]",40.9,43.7,20.8,–
"COCCN1CCN(CCOc2ccn3c(C(=O)Nc4cccc5c4c(C)nn5Cc4cccc(C5CC5)n4)cnc3c2)CC1 [Example 20, N-(1-((6-cyclopropylpyridin-2-yl)methyl)-3-methyl-1H-indazol-4-yl)-7-(2-(4-(2-methoxyethyl)piperazin-1-yl)ethoxy)imidazo[1,2-a]pyridine-3-carboxamide]",55.9,76.1,10.8,–
"CC(C)N1CCN(CCOc2ccn3c(C(=O)Nc4cccc5c4c(Cl)nn5Cc4cccc(C5CC5)n4)cnc3c2)CC1 [Example 21, N-(3-chloro-1-((6-cyclopropylpyridin-2-yl)methyl)-1H-indazol-4-yl)-7-(2-(4-isopropylpiperazin-1-yl)ethoxy)imidazo[1,2-a]pyridine-3-carboxamide]",124,46.6,12,–
"CC(C)N1CCN(CCOc2ccn3c(C(=O)Nc4cccc5c4c(F)nn5Cc4cccc(C5CC5)n4)cnc3c2)CC1 [Example 22, N-(1-((6-cyclopropylpyridin-2-yl)methyl)-3-fluoro-1H-indazol-4-yl)-7-(2-(4-isopropylpiperazin-1-yl)ethoxy)imidazo[1,2-a]pyridine-3-carboxamide]",17.6,5.2,6.7,–
"C[C@H]1CN(CCOc2ccn3c(C(=O)Nc4cccc5c4c(Cl)nn5Cc4cccc(C5CC5)n4)cnc3c2)CCN1C [Example 23, (S)—N-(3-chloro-1-((6-cyclopropylpyridin-2-yl)methyl)-1H-indazol-4-yl)-7-(2-(3,4-dimethylpiperazin-1-yl)ethoxy)imidazo[1,2-a]pyridine-3-carboxamide]",239,65.7,21.1,–
"C[C@H]1CN(CCOc2ccn3c(C(=O)Nc4cccc5c4c(F)nn5Cc4cccc(C5CC5)n4)cnc3c2)CCN1C [Example 24, (S)—N-(1-((6-cyclopropylpyridin-2-yl)methyl)-3-fluoro-1H-indazol-4-yl)-7-(2-(3,4-dimethylpiperazin-1-yl)ethoxy)imidazo[1,2-a]pyridine-3-carboxamide]",14.1,6.4,6.8,–
"Cc1nn(Cc2cccc(C(C)(C)C)n2)c2cccc(NC(=O)c3cnc4cc(OCCN5CCN(C)[C@@H](C)C5)ccn34)c12 [Example 31, (S)—N-(1-((6-tert-butylpyridin-2-yl)methyl)-3-methyl-1H-indazol-4-yl)-7-(2-(3,4-dimethylpiperazin-1-yl)ethoxy)imidazo[1,2-a]pyridine-3-carboxamide]",335,67.1,102,–
"Cc1nn(Cc2cccc(C3CCC3)n2)c2cccc(NC(=O)c3cnc4cc(OCCN5CCN(C)[C@@H](C)C5)ccn34)c12 [Example 32, (S)—N-(1-((6-cyclobutylpyridin-2-yl)methyl)-3-methyl-1H-indazol-4-yl)-7-(2-(3,4-dimethylpiperazin-1-yl)ethoxy)imidazo[1,2-a]pyridine-3-carboxamide]",66.5,42.4,24.2,–
"CC(O)c1ccn2c(C(=O)Nc3cccc4c3cnn4Cc3ccccc3)cnc2c1 (stereo not drawn) [Example 147, N-(1-benzyl-1H-indazol-4-yl)-7-(1-hydroxyethyl)imidazo[1,2-a]pyridine-3-carboxamide]",–,93.1,72.6,399
"CC(c1ccn2c(C(=O)Nc3cccc4c3cnn4Cc3ccccc3)cnc2c1)N1CCOCC1 (stereo not drawn) [Example 148, N-(1-benzyl-1H-indazol-4-yl)-7-(1-morpholinoethyl)imidazo[1,2-a]pyridine-3-carboxamide]",–,189,93.1,994
"Cc1ncc(Cn2ncc3c(NC(=O)c4cnc5cc(OCCN6CCN(C)CC6)ccn45)cccc32)s1 [Example 149, 7-(2-(4-methylpiperazin-1-yl)ethoxy)-N-(1-((2-methylthiazol-5-yl)methyl)-1H-indazol-4-yl)imidazo[1,2-a]pyridine-3-carboxamide]",–,4.8,2.2,1
"Cc1cccc(Cn2ncc3c(NC(=O)c4cnc5cc(OCCN6CCN(C)CC6)ccn45)cccc32)n1 [Example 150, 7-(2-(4-methylpiperazin-1-yl)ethoxy)-N-(1-((6-methylpyridin-2-yl)methyl)-1H-indazol-4-yl)imidazo[1,2-a]pyridine-3-carboxamide]",–,14.4,4.6,1.7
"COCCOc1ccn2c(C(=O)Nc3cccc4c3cnn4CCc3ccccc3)cnc2c1 [Example 151, 7-(2-methoxyethoxy)-N-(1-phenethyl-1H-indazol-4-yl)imidazo[1,2-a]pyridine-3-carboxamide]",–,37.3,44.8,9
"N#Cc1ccn2c(C(=O)Nc3cccc4c3cnn4Cc3ccccc3)cnc2c1 [Example 152, N-(1-benzyl-1H-indazol-4-yl)-7-cyanoimidazo[1,2-a]pyridine-3-carboxamide]",–,165,117,296
"CN1CCN(CCOc2ccn3c(C(=O)Nc4cccc5c4cnn5Cc4ccccc4)cnc3c2)CC1 [Example 153, N-(1-benzyl-1H-indazol-4-yl)-7-(2-(4-methylpiperazin-1-yl)ethoxy)imidazo[1,2-a]pyridine-3-carboxamide]",–,9.5,14.8,5
"N#Cc1ccc2ncc(C(=O)Nc3cccc4c3cnn4Cc3ccccc3)n2c1 [Example 154, N-(1-benzyl-1H-indazol-4-yl)-6-cyanoimidazo[1,2-a]pyridine-3-carboxamide]",–,150,143,186
"COCCOc1ccn2c(C(=O)Nc3cccc4c3cnn4Cc3ccccc3)cnc2c1 [Example 156, N-(1-benzyl-1H-indazol-4-yl)-7-(2-methoxyethoxy)imidazo[1,2-a]pyridine-3-carboxamide]",–,12.5,5.7,5.7
"O=C(Nc1cccc2c1cnn2Cc1ccccc1)c1cnc2ccc(C(O)CO)cn12 (stereo not drawn) [Example 158, N-(1-benzyl-1H-indazol-4-yl)-6-(1,2-dihydroxyethyl)imidazo[1,2-a]pyridine-3-carboxamide]",–,2100,535,2400
"COc1ccc2ncc(C(=O)Nc3cccc4c3cnn4Cc3ccccc3)n2c1 [Example 159, N-(1-benzyl-1H-indazol-4-yl)-6-methoxyimidazo[1,2-a]pyridine-3-carboxamide]",–,9.8,26.6,64.3
"NC(=O)c1ccc2ncc(C(=O)Nc3cccc4c3cnn4Cc3ccccc3)n2c1 [Example 160, N3-(1-benzyl-1H-indazol-4-yl)imidazo[1,2-a]pyridine-3,6-dicarboxamide]",–,868,132,714
